SMILES strings stand for the structures. Like-named read-outs stand apart in the source and are kept apart here.

Series [1] has as its system loblolly pine trees, Pinus taeda L. The following applies: in vivo. How it is done: Treatment Methods: Trial 1: Loblolly pine trees, Pinus taeda L., 15-20 cm (=6-9 inch) diameter at breast height (DBH), were selected in March of the study year in a 20-year-old pine stand in east Texas (Angelina County). Each treatment was injected into four cardinal points about 0.3 m above the ground on each of 15 trees in April (16th-23rd) using the Arborjet Tree IV™ microinfusion system (Arborjet, Inc. Woburn, Mass.).
At the time of tree felling, a section of lower bole (˜60-80 cm) containing the injection points was taken from each injected tree. The bark was later removed around the injection points to determine if any damage had resulted from the installation of plugs and/or injection of chemicals. If damage was found, the length and width of any ‘lesions’ (discolored areas on the surface of the xylem) were measured.

A further series deals with Cerambycid. Format: in vivo, cerambycids. As to conditions: for Number of Attacks/0.3 m bole section at 3 m after 24 days: Cerambycid: 576 h. How it is done:
After 5 weeks post-injection (May 28), frills were cut with a hatchet into the sapwood between the injection points near the base of the tree. A cellulose. sponge was inserted into each cut and loaded with I0 ml of a 4:1 mix of sodium N-methyldithiocarbamate (MS) (Woodfume®; Osmose, Inc., Buffalo, N.Y.) plus dimethyl sulfoxide (DMSO) (Aldrich Chemical) (Roton 1987, Strom et al. 2004). This method reduces resin to near zero in 1-2 weeks. The intent was to stress the tree and make it susceptible to attack by bark beetles without killing it. Pheromone packets containing racemic ipsdienol+lanerione, ipsenol or cis-verbenol were attached (June 7) atop 3 m stakes evenly spaced in between and around the study trees to encourage attack by the three Ips engraver species. […] Thus, ipsdienol and cis-verbenol pheromone baits were deployed on all stakes on June 17th. The baits were changed every 4 weeks.
Trial 2. Three weeks after pheromone deployment (June 28), each tree was evaluated by marking a 30 cm (1 ft) section of bole at a height of 3 m (10 ft). All visible Ips attacks and cerambycid egg niches were counted within the marked area. The number of trees with fading crowns also was recorded. Thereafter, the trees were evaluated weekly for crown fading. When mortality did occur, the trees were felled and two bolts taken and evaluated for attack success and gallery length as described in Trial 1. All remaining trees were felled 66 days (Aug. 9) after initial pheromone deployment when no additional trees had died for 2 weeks. Treatment efficacy was determined by comparing tree survival, beetle attacks and egg gallery length on treated and untreated bolts. As before, data were transformed and analyzed by GLM and the Fisher's Protected LSD test using the Statview statistical program.

As for `O=[N+]([O-])NC1=NCCN1Cc1ccc(Cl)nc1` [Imid], the “Lesion Length” value in series [1] (1 month) stood at 7.3 b cm; in series [1] (3 months) it was 6.1 a cm. Also, the figures for the “Lesion Width” value in series [1] (1 month) and in series [1] (3 months) were 1.7 a cm and 1.3 cm, respectively. The “Number of Attacks/0.3 m bole section at 3 m after 24 days: Cerambycid” value in the series with Cerambycid worked out at 4.7 a.

Turning to `N#Cc1nn(-c2c(Cl)cc(C(F)(F)F)cc2Cl)c(N)c1[S+]([O-])C(F)(F)F` (centres unmarked) [Fip, 5-amino-3-cyano-1-(2,6-dichloro-4-trifluoromethylphenyl)-4-trifluoromethylsulfinylpyrazole], in series [1] (1 month), the “Lesion Length” value was found to be 4.1 a cm and the “Lesion Width” value is recorded as 1.5 a cm. In addition, in series [1] (3 months), the “Lesion Length” value is recorded as 4.1 a cm and the “Lesion Width” value amounted to 1.4 cm. For the same compound, in the series on Cerambycid, the “Borer Feeding Area (% of Total Area)” value was 0.0 % of Total Area and the “Number of Attacks/0.3 m bole section at 3 m after 24 days: Cerambycid” value worked out at 1.3 a.

Source of the values: US20080039515A1, “Arylpyrazoles And Methods Of Using Same For Control Of Insect Pests That Bore Into Trees” (The Texas A&M University System, priority 2004, published 2008).
